According to ChEMBL document CHEMBL3108744, “Heronamides D-F, polyketide macrolactams from the deep-sea-derived Streptomyces sp. SCSIO 03032” (J Nat Prod, 2014):
Calls of active or inactive are those of the source. The calls are words filed in the database; no cut-off is given here.

Columns and labels:
SF-268 = experiment: Cytotoxicity against human SF268 cells by SRB assay; type: functional, cell-based
Candida albicans = experiment: Antifungal activity against Candida albicans ATCC 10231 assessed as growth inhibition by broth microdilution method; type: functional
MCF7 = experiment: Cytotoxicity against human MCF7 cells by SRB assay; type: functional, cell-based
Bacillus thuringiensis = experiment: Antibacterial activity against Bacillus thuringiensis SCSIO BT01 assessed as growth inhibition by broth microdilution method; type: functional
HUVEC [1] = experiment: Antimigratory activity in HUVEC at 11.8 uM up to 72 hrs by scratch wound healing assay relative to DMSO-treated control; type: functional, cell-based; conditions: Homo sapiens
Bacillus subtilis = experiment: Antibacterial activity against Bacillus subtilis SCSIO BS01 assessed as growth inhibition by broth microdilution method; type: functional
[2] = system: Radical scavenging activity; experiment: Antioxidant activity of the compound assessed as DPPH radical scavenging activity after 30 mins by spectrophotometric analysis; type: functional
Staphylococcus aureus = experiment: Antibacterial activity against Staphylococcus aureus ATCC 29213 assessed as growth inhibition by broth microdilution method; type: functional
NCI-H460 = experiment: Cytotoxicity against human NCI-H460 cells by SRB assay; type: functional, cell-based
Escherichia coli = experiment: Antibacterial activity against Escherichia coli ATCC 25922 assessed as growth inhibition by broth microdilution method; type: functional
HUVEC [3] = experiment: Antimigratory activity in HUVEC at 17.1 uM up to 72 hrs by scratch wound healing assay relative to DMSO-treated control; type: functional, cell-based; conditions: Homo sapiens

| MIC (Candida albicans) [µg/mL] | MIC (Bacillus thuringiensis) [µg/mL] | MIC (Bacillus subtilis) [µg/mL] | MIC (Staphylococcus aureus) [µg/mL] | MIC (Escherichia coli) [µg/mL] | Compound | IC50 (SF-268) [µM] | IC50 (MCF7) [µM] | Activity (HUVEC [1]) | Activity [2] | IC50 (NCI-H460) [µM] | Activity (HUVEC [3]) |
| --- | --- | --- | --- | --- | --- | --- | --- | --- | --- | --- | --- |
| > 128 | > 128 | > 128 | > 128 | > 128 | C/C=C/C=C/C[C@@H]1C/C=C/C=C(C)/C=C/C=C\[C@@H](O)[C@@H](O)/C=C(C)/C=C/C=C/C(=O)N1 | > 100 | > 100 | inactive | inactive | > 100 |  |
| > 128 | > 128 | > 128 | > 128 | > 128 | C/C=C/C=C/C[C@@H]1C[C@H](O)[C@H]2[C@@H]3/C(C)=C/[C@H]4C=C[C@@H](O)[C@@H](O)[C@@H]4/C(C)=C/C=C\[C@@H]3C(=O)N12 | > 100 | > 100 |  | inactive | > 100 | inactive |
| > 128 | > 128 | > 128 | > 128 | > 128 | C/C=C/C=C/C[C@@H]1C/C=C/C=C(C)/C=C/C=C\[C@@H](OC(C)=O)[C@@H](OC(C)=O)/C=C(C)/C=C/C=C/C(=O)N1 | 23.3 | 15.4 |  |  | 56.4 |  |
| > 128 | > 128 | > 128 | > 128 | > 128 | C/C=C/C=C/C[C@@H]1C[C@@H]2/C=C/C(C)=C/[C@H]3C=C[C@@H](O)[C@@H](O)[C@@H]3/C(C)=C/C=C/[C@H]2C(=O)N1 | > 100 | > 100 |  | inactive | > 100 |  |
